In BindingDB's records for doi:10.1021/jm00124a018 (Institute of Cancer Research, 1989):

Target: Thymidylate synthase (Mus musculus, L1210)
Experiment: Inhibitory concentration of compound to inhibit Thymidylate synthase (TS) in L1210 cells at conc. of 200 uM

| Structure (SMILES) | IC50 |
| --- | --- |
| CCN(Cc1ccc2nc[nH]c(=O)c2c1)c1ccc(C(=O)NC(CCC(=O)O)C(=O)O)cc1 (configuration not stated) | 0.52 µM |
| CCN(Cc1ccc2nc(N)[nH]c(=O)c2c1)c1ccc(C(=O)NC(CCC(=O)O)C(=O)O)cc1 (configuration not stated) | 0.06 µM |
